Assay results from patent US20230390277A1, “METHODS TO SENSITIZE TUMORS TO TREATMENT BY IMMUNOTHERAPY” (Ohio State Innovation Foundation, priority 2020, published 2023).

Experiments:
[1] = test system: pODD-Luc reporter in MP2 pODD cells; assay: in vitro luciferase assay, MP2 pODD cells; format: cell-based, human; conditions: 16 hours, 1 mM
Method: (§1) PCR-amplified cassette was then digested with Asci and Pmel restriction enzymes and ligated into pLenti-C-Myc-DDK-IRES-Puro. Correct orientation and sequence was confirmed by Sanger DNA sequencing. HeLa pODD and MIP2 pODD transfectants were selected with 2 μg/ml Puromycin for two weeks. Stable MP2 CMV Cells were generated by lentiviral transduction of MP2 cells with pLenti-CMV-Puro-Luc lentiviral vector (Addgene#17477) with 2 Puromycin selection for two weeks. Cells were grown in Dulbecco's Modified Eagle's Medium (DMEM) containing 25 mM D-glucose, 4 mM glutamine and 44 mM sodium bicarbonate in 5% CO2, if not stated otherwise. The cells were exposed to hypoxia (1% O2) in H35 Hypoxic Workstation (Hypoxygen) with 5% CO2 at 37° C. In some experiments, we used a hypoxia mimetic dimethyloxalyglycine (DMOG) as described. Cell counts and cellular proliferation were established using hemocytometer to determine the cell number and trypan blue exclusion assay to establish the fraction of viable/dead cells. All human cell lines have been authenticated using STR profiling within the past 3 years. All experiments were performed with mycoplasma-free cells.
In vitro luciferase Assay. Proteins were extracted using Luciferase Assay Lysis Buffer (125 mM Tris-HCl, pH 7.5, 11.0 mM DTT, 10 mM EGTA, 50% Glycerol, 5% Triton X-100) and 200 μl/sample were transferred to 96-well plate and D-luciferin was added to the final concentration of 150 μg/ml immediately before the assay. Bioluminescence was measured on a Synergy H1 Hybrid Plate Reader (Biotek) after a 10-minute incubation period (10 slsample, Gain=150) in triplicates.

MP2 pODD flank tumors = assay: in vivo bioluminescent imaging, heterotopic MP2 pODD flank tumors; design: species or system mouse; conditions: 4 mg intraperitoneally, 4 hours post injection
Method: In vivo bioluminescent imaging. […] For heterotopic flank tumor experiments, 1×10^6 HeLa pODD or 5×10^6 MP2 cells were injected subcutaneously (s.c.) into the flanks of 6-wk-old female (HeLa pODD) or male (N1P2 pODD or MP2 CMV) immunocompromised athymic nu/nu mice. Replicate experiments with groups of 4-6 mice were used for statistical reproducibility. Caliper measurements of opposing diameters were used to calculate the tumor volumes using the modified ellipsoidal formula: tumor volume=(length×width^2)[23]. Upon reaching 100 mm^3, the animals were given 100 mg/kg D-luciferin intraperitoneally and bioluminescence images were captured using IVIS In Vivo Imaging System Lumina II (Perkin Elmer Inc). […] Bioluminescent data were analyzed using living Image software (Perkin Elmer Inc) and calculated as photon flux/sec. Obtained individual photon flux peak values were then normalized to baseline for each mouse and averaged per group. Gas inhalation experiments were performed by switching medical air and carbogen gas sources for the IVIS anesthesia vaporizer. Initial baselines were established in medical air under anesthesia, then the mice were subjected to 30 minutes of either medical air or carbogen rebreathing in an air-tight chamber while awake. After 30 minutes, photon flux was established in respective gas sources as a carrier for isoflurane anesthesia.

MP2 CMV cells = assay: in vitro luciferase assay, MP2 CMV control cells; format: cell-based, human; conditions: 1 mM DMOG, constitutive CMV reporter
Method: as §1
In vitro luciferase Assay. […] Bioluminescence was measured on a Synergy H1 Hybrid Plate Reader (Biotek) after a 10-minute incubation period (10 slsample, Gain=150) in triplicates.

cells = assay: in vitro washout experiments; format: cell-based; conditions: initial studies
[2] = test system: CD8 T cells in MC38 tumors; assay: multispectral immunophenotyping of tumor infiltrating lymphocytes in MC38 tumors; format: in vivo, mouse; conditions: 2 mg/kg IV days 8, 10, 13; tumors harvested day 15
Method: Panel A Tumor infiltrating immune cells isolated from Day 15 MC38 tumors (n=4/g) were stained for lineage (CD45, CD3, CD8, […], and CD11b) and T cell exhaustion (PD1, Tim3, Slamf6, TOX, Tcf1, CD44, CD62L, CTLA4, Lag-3, Klrg1, T-bet, and Ki-67) (93-96). Cells were analyzed by Cytek Aurora multi-spectral FACS, and Umap generated based on concatenated file from each 4 FSC files without variation in cell number. Limp figure was generated by OMIQ with CD8 T cells (CD45+, CD3+, CD8+, CD11b−, CD4−). CD8 population was divided into 15 clusters based on T cell markers. Expression signatures marked (ovals) show progenitor exhausted T cells and terminally exhausted T cells. Panel B Statistical significance of clusters between control and SMV32 treated group were assessed by edgeR and SAM (n=4 mice per group).
In order to determine a mechanism by which reduction in hypoxia enhances immune function in the solid tumor, we undertook an investigation with multi spectral immunophenotyping. This technology uses 36 different markers simultaneously to characterize immune cell infiltrate in tumors. We performed this analysis on heterotopic NIC38 murine colorectal carcinoma tumors grown in immune-competent C57BI6 mouse strain. A cohort of tumor bearing mice were randomized to be treated with either IV delivery of vehicle control, or either PPV or SMV32. […]

[3] = test system: orthotopic MP2 pODD tumors; assay: in vivo bioluminescent imaging, orthotopic MP2 pODD tumors; design: species or system mouse; conditions: 2 mg/kg, tail vein
Method: Orthotopic Panreatic Xenografts. MP2 PD AC cells (1×10^6) or the indicated derivates were implanted in immune-deficient athymic nu/nu mice following fACLIC approved protocols. Briefly, an incision was placed in the right flank of anesthetized animals the spleen and pancreas liberated. Cells were mixed 1:1 with Matfigel and implanted in the tail of the pancreas in 10 μl. Incision was sutured in 2 layers, animals given long lasting analgesics, and allowed to recover from anesthesia. Mice were returned to housing for post-op care and monitored daily for 4 days. Animals were checked weekly after that by palpation to determine tumor growth.
In vivo bioluminescent imaging. All animal experiments were performed according to protocols approved by the OSU institutional IAGLIC review (protocol #201200000124-R2), with daily veterinarian observation. For heterotopic flank tumor experiments, 1×10^6 HeLa pODD or 5×10^6 MP2 cells were injected subcutaneously (s.c.) into the flanks of 6-wk-old female (HeLa pODD) or male (N1P2 pODD or MP2 CMV) immunocompromised athymic nu/nu mice. […] Mice were anesthetized with 1.5% isoflurane and bioluminescence was measured every two minutes for the period of 25 minutes to identify peak response of each mouse to D-luciferin. Bioluminescent data were analyzed using living Image software (Perkin Elmer Inc) and calculated as photon flux/sec. […]

LLC tumor = assay: Lewis Lung Carcinoma (LLC) PD-1 blockade resistant tumor model; format: in vivo, mouse
Method: LLC tumor bearing mice were treated as indicated on days 5, 8 and relative growth followed. P=NS for PD-1 vs PPV->PD1, 0.04 for PD-i vs SMV32->PD-1.
Finally, as a rigorous test of anti-hypoxia agents as immuno-sensitizers of model tumors grown in mice, we next tested the PD-1 blockade resistant tumor model Lewis Lung Carcinoma (LLC). These tumors have been reported to be refractory to even full dose (200 ug/mouse) PD-1 blocking antibody.

murine tumors = assay: murine tumor hypoxia and radiation response; conditions: mouse, in vivo
MC38 colorectal tumor = assay: MC38 colorectal tumors in C57Bl6 mice, sensitization to anti PD-1; format: in vivo, mouse
Method: MC38 tumors grown in C57B16 mice were treated as indicated with irrelevant antibody, anti PD-1, or anti PD-1 after PPV or SMV32 n=5-7, P=<0.05* for PPV and <0.01** for SMV32.
Papaverine and SMV32 enhance PD-1 checkpoint blockade immunotherapy for cancer treatment. Because of the literature describing the immunomodulatory effects of hypoxia^(24-27), we hypothesized that reducing hypoxia may also enhance tumor lymphocyte infiltration and function and improve immune-mediated tumor cell killing. As those of skill in the art recognize, there is a large body of literature and research on increase the supply side of the hypoxia equation, but it has been heretofore an unexpected approach to decrease the tri demand side of the hypoxia equation. We tested tumors grown from the relatively immune-sensitive syngeneic MC38 colorectal tumor line in immuno-competent C5713116 mice. […] In a second cohort, we implanted 1×10^6 cells/mouse and after 5 days, when tumors were 50-100 mm^3, they were randomized into four groups. Therapy was started with either control rat IgG antibody, or a suboptimal dose of anti PD-1(CD279) blocking monoclonal antibody (BioXCell, clone 29F.1A12, 100 μg ip every 3 days).

CMT167 flank lung tumors = CMT167 flank lung tumors in C57Bl6 mice, sensitization to anti PD-1; format: in vivo, mouse
Method: C57B16 mice bearing CMT167 flank lung tumors were treated as indicated on days 10 and 13 and relative volume followed.
There are reports in the literature indicating ways that hypoxia affects immune functions of lymphocytes, MDSCs and T regulatory cells infiltrating in the tumor.

ETC complex 1 (C1) = ETC complex 1 (C1) (Homo sapiens, UniProt O75251+O75306+P03886); assay: inhibition of cellular OCR by Seahorse XE assay; format: cell-based
ETC complex 1 (C1), sequence (O75251 39-213): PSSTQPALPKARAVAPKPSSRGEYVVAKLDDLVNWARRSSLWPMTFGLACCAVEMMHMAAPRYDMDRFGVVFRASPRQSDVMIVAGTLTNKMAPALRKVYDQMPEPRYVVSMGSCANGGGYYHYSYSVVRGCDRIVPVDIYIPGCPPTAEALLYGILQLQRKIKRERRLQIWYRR
ETC complex 1 (C1), sequence (O75306 34-463): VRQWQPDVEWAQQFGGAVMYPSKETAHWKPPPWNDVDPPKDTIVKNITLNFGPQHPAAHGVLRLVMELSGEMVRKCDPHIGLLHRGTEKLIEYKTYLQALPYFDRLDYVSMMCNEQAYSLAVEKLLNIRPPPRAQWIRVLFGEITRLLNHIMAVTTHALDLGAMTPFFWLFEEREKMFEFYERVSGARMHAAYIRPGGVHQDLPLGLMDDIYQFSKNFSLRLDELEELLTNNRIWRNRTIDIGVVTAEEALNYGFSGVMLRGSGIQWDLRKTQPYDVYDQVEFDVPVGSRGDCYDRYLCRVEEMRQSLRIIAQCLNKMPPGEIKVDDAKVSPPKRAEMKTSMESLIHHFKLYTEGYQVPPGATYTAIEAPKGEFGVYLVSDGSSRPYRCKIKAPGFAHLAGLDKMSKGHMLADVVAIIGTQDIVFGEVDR
ETC complex 1 (C1), sequence (P03886 whole entry): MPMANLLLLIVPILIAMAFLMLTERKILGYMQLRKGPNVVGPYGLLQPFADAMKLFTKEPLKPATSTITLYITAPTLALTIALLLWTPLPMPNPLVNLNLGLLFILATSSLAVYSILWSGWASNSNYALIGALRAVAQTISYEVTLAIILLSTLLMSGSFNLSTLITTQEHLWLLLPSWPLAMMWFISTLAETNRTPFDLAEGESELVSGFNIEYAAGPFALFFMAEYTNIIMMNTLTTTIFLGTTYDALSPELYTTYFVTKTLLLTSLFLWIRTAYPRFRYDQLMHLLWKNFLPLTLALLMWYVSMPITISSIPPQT
Excerpt: PPVs PDE and mitochondrial activities are chemically separable. Papaverine has been traditionally thought to be effective as a vasodilator for the treatment of conditions including erectile dysfunction because it can inhibit PDE10A (like PDE 5 inhibitors sildenafil and tadalafil). However, PDE inhibition is not responsible for OCR effects in vitro, so we postulated that there are two activities in PPV, one inhibiting ETC complex 1 (C1) and one inhibiting PDE10A that may reside in different parts of the molecule. We therefore defined the structure activity relationship (SAR) of PPV relative to two assays: inhibition of cellular OCR by Seahorse XE assay, and inhibition of PDE10A by purified enzyme activity (PDE10A activity assay, BPS Bioscience). Because PPV can compete with rotenone at complex 1 (23), we reasoned that they may be binding the same site and therefore the structures would be similar relative to their target. Because the top portion of PPV was a planar structure like that of rotenone, we decided to focus our attention on the lower portion of the molecule.

PDE10A = target: T1, PDE10A (Homo sapiens, UniProt Q9Y233); assay: PDE10A purified enzyme activity assay (BPS Bioscience); format: biochemical; conditions: dose response analysis
T1 construct: purchased BPS Bioscience
T1 sequence (Q9Y233 whole entry): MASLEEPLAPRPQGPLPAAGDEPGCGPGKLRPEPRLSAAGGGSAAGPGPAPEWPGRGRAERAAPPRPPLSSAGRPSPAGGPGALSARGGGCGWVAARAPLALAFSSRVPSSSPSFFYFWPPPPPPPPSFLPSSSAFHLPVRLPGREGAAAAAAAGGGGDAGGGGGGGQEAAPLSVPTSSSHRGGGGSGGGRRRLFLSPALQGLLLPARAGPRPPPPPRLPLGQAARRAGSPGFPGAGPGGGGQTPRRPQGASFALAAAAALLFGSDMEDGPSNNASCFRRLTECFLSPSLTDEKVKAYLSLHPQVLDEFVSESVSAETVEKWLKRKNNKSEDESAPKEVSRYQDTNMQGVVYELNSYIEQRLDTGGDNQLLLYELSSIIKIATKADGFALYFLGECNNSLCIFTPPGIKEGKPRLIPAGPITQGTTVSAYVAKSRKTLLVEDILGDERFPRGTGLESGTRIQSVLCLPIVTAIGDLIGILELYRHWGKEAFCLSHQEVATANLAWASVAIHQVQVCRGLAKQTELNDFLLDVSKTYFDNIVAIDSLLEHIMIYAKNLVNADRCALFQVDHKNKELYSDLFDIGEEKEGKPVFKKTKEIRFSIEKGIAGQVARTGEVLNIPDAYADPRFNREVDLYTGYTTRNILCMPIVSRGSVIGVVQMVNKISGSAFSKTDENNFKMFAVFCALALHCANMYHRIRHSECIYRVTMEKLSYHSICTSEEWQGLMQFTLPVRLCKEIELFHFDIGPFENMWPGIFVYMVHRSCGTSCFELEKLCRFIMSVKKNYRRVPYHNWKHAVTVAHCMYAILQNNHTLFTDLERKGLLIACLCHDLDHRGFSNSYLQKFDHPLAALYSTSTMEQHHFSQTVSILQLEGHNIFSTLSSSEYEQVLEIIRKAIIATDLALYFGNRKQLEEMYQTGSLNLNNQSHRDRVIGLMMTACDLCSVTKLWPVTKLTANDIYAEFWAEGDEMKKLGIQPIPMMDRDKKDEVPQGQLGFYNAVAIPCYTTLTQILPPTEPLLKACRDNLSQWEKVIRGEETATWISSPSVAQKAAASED
Excerpt: We therefore defined the structure activity relationship (SAR) of PPV relative to two assays: inhibition of cellular OCR by Seahorse XE assay, and inhibition of PDE10A by purified enzyme activity (PDE10A activity assay, BPS Bioscience). […] Because the top portion of PPV was a planar structure like that of rotenone, we decided to focus our attention on the lower portion of the molecule.

| SMILES | increase of pODD-Luc signal [1] [×] | photon flux (MP2 pODD flank tumors) | luciferase signal response (MP2 CMV cells) | washout from cells (cells) | exhausted CD8 T cell populations [2] | photon flux compared to PPV treated mice [3] | comparison with PPV for sensitizing tumors to PD-1 blockade (LLC tumor; resistant LLC tumors) | therapeutic effect, compound first and PD-1 antibody second (LLC tumor; treated on days 5, 8) | radiation response (murine tumors) | tumor hypoxia (murine tumors) | effect on PD-1 blockade (MC38 colorectal tumor; 2 mg/kg iv 16 hours prior to suboptimal anti PD-1 (100 μg ip every 3 days)) | tumor growth, compound alone (MC38 colorectal tumor; repeated dosing, no antibody) | tumor growth delay (CMT167 flank lung tumors; given 16 hours prior to sub-optimal anti-PD-1, days 10 and 13) | comparison with PPV for sensitizing tumors to PD-1 blockade (CMT167 flank lung tumors; same dose as PPV) | mitochondrial activity (ETC complex 1 (C1)) | C1 inhibitor selectivity (ETC complex 1 (C1); vs PDE10A) | PDE inhibition IC25 (PDE10A) [µM] |
| --- | --- | --- | --- | --- | --- | --- | --- | --- | --- | --- | --- | --- | --- | --- | --- | --- | --- |
| COC(=O)CNC(=O)C(=O)OC [DMOG, dimethyloxalyglycine] | 2.2 | significant increase of photon flux | unresponsive | – | – | – | – | – | – | – | – | – | – | – | – | – | – |
| COc1cc2ccnc(Cc3cccc4ccccc34)c2cc1OC [SMV32] | – | – | – | does not wash out of cells | shift from terminal (known to be non-functional) to progenitor cells | trended to longer duration of action and lower luciferase activity at 6 hours | superior to PPV | significant growth inhibition | increase radiation response of murine tumors | reduce tumor hypoxia | enhance the effectiveness of suboptimal PD-1 blockade | no effect on tumor growth | significant tumor growth delay | superior to PPV | retain mitochondrial activity | relatively pure | 13.4 |
